Data as given in US20220184222A1, “BICYCLE TOXIN CONJUGATES AND USES THEREOF” (BicycleTx Limited, priority 2019, published 2022).
Starred links: 1 amine or outer side, 2 acyl side, 3 side chain; linkers in the order of their positions; H or OH if unused. Non-standard residues stand in square brackets, D forms with d. Residues, ends and D or L forms follow the SMILES beside them. *: point of attachment. Dolaproine = CO[C@@H]([C@@H]1CCCN1)[C@@H](C)C(=O)O; Dil = CC[C@H](C)[C@H](NC)[C@@H](CC(=O)O)OC; PABC = O=C(OCc1ccc(N[*:1])cc1)[*:2]; X1 = O=C(CCCC(=O)*)ON1C(=O)CCC1=O; X2 = C[C@@H](N*)[C@@H](O)c1ccccc1; Cit = NC(=O)NCCC[C@H](N)C(=O)O; NMeV = CN[C@H](C(=O)O)C(C)C

Assays:
[1] = system: CTG-1212; experiment: Champions TumorGraft NSCLC PDX efficacy, model CTG-1212; type: in vivo, Mus musculus
Experimental: (§1) Mice were implanted subcutaneously into the left flank with tumor fragments from one of the various models. After tumors grew to an average of 150-300 mm^3, mice were treated by IV administration Q7Dx4 (n=2) with vehicle or 3 mg/kg of BT5528. Effects on tumor growth were evaluated by measuring percent tumor growth inhibition (% TGI), and the number of complete responders (CR), partial responders (PR), and tumor-free survivors (TFS). Tolerability was assessed by body weight loss, lethality, and clinical signs of adverse treatment-related side effects. Tumor volumes and body weights were measured twice a week.
(§2) Dosing solutions of BT5528 […] were pre-formulated. These dosing solutions were stored at −80° C. in the dark. On each day of dosing, a frozen aliquot of each test agent was thawed, stored at 2-8° C. and used for dosing.
(§3) The animals used in this study are described below: • Species: Mus musculus • Strain: Athymic Nude-Foxn1^nu (immune-compromised) • Source: Envigo (Indianapolis, Ind., USA) • Number of animals per group: 2 • Age and sex: At least 6-8 weeks of age at start of dosing, female • Weight: At least 18 grams at start of dosing • Acclimation period: 3 days
(§4) Stock mice were implanted with tumor cells from Champions TumorGraft® models CTG-0160, CTG-0170, CTG-0178, CTG-0192, CTG-0363, CTG-0808, CTG-0838, CTG-0848, CTG-1212, CTG-1502, CTG-1535, CTG-2011, CTG-2393, CTG-2539 or CTG-2540. After the tumors reached 1000-1500 mm^3, they were harvested and the tumor fragments (approximately 5×5×5 mm^3) were implanted SC in the left flank of the female study mice. Each animal was implanted with a specific passage lot and documented. Tumor growth was monitored twice a week using digital calipers and the tumor volume (TV) was calculated using the formula (0.52×[length×width^2]). When the TV reached an average volume of 150-300 mm^3, animals were matched by tumor size and assigned into Vehicle Control and treatment groups (n=2/group) and dosing was initiated on Day 0. After the initiation of dosing on Day 0, animals were weighed twice per week using a digital scale and TV was measured twice per week and also on the final day of study. The study was completed when the mean tumor volume of Vehicle Control reached 1500 mm^3 or up to Day 60, whichever occurred first.
(§5) Beginning on Day 0, animals were observed daily and weighed twice weekly using a digital scale; data including individual and mean gram weights, mean percent weight change versus Day 0 (% vD0) were recorded for each group and % vD0 plotted at study completion. […] Treatment resulting in a mean % vD0>20% and/or >10% mortality was considered above the maximum tolerated dose. Maximum mean % vD0 (weight nadir) for each treatment group was reported at study completion.
(§6) Inhibition of tumor growth was determined by calculating the percent TGI (100%×[1−(final MTV−initial MTV of a treated group)/(final MTV−initial MTV of the control group)]). Treatment started on Day 0.
(§7) Additional endpoints used to evaluate efficacy were: the number of complete responders (CR), partial responders (PR), and tumor-free survivors (TFS). PRs were considered exclusive of CRs, as were TFS.
(§8) Statistical analyses of anti-tumor efficacy were performed using one-way ANOVA followed by Dunnett's multiple comparisons test (GraphPad Prism version 8.2.0). Significant p-values=<0.05.
Animals were dosed according to the schedule on Table 7-1. The study was terminated on Day 27.

[2] = system: CTG-2540; experiment: Champions TumorGraft NSCLC PDX efficacy, model CTG-2540; type: in vivo, Mus musculus
Experimental: as §1, §2, §3, §4, §5, §6, §7, §8
Animals were dosed according to the schedule on Table 7-1. The study was terminated on Day 28.

[3] = system: CTG-0192; experiment: Champions TumorGraft NSCLC PDX efficacy, model CTG-0192; type: in vivo, Mus musculus
Experimental: Mice were implanted subcutaneously into the left flank with tumor fragments from one of the various models. […] Effects on tumor growth were evaluated by measuring percent tumor growth inhibition (% TGI), and the number of complete responders (CR), partial responders (PR), and tumor-free survivors (TFS). Tolerability was assessed by body weight loss, lethality, and clinical signs of adverse treatment-related side effects. Tumor volumes and body weights were measured twice a week.
as §2, §3, §4, §5, §6, §7, §8
Animals were dosed according to the schedule on Table 7-1. The study was terminated on Day 34.

[4] = system: CTG-2011; experiment: Champions TumorGraft NSCLC PDX efficacy, model CTG-2011; type: in vivo, Mus musculus
Experimental: as §1, §2, §3, §4, §5, §6, §7, §8
Animals were dosed according to the schedule on Table 7-1. The Vehicle Control reached endpoint on Day 18 and the study was terminated on Day 28.

[5] = system: CTG-0160; experiment: Champions TumorGraft NSCLC PDX efficacy, model CTG-0160; type: in vivo, Mus musculus
Experimental: as §1, §2, §3, §4, §5, §6, §7, §8
Animals were dosed according to the schedule on Table 7-1. The Vehicle Control group reached endpoint of average tumor volume >1500 mm^3 on Day 21 and was removed from the study. The study was terminated on Day 28. Therefore, the tumor volumes on Day 21 were used for analysis of anti-tumor activity.

[6] = system: Panc163; experiment: PDAC PDX Panc163 xenograft efficacy (Example 5); type: in vivo, NSG mice; settings: 3 mg/kg intravenously weekly, 4-week treatment period
Experimental: BT5528 and Vehicle were prepared as described in the examples above, and tested in treatment of Pancreatic Ductal Adenocarcinoma (PDAC) in PDX models. PDX models effectively capture patient responses to oncology therapy in a heterogeneous cohort of patients with solid tumors with 80-100% correlation between the PDX and patient response (Izumchenko et al. 2017)
Pancreatic ductal adenocarcinoma patient derived xenograft tumors (PDAC PDX; Panc033 and Panc163) were implanted subcutaneously from source tumors into the flank of NSG mice. Tumor bearing animals were randomized to receive intravenously a weekly dosing of vehicle or 3 mg/kg BT5528. Tumor sizes were monitored by caliper measurements.

[7] = CTG-1212, 3 mg/kg IV Q7Dx4, Day 0-27
[8] = CTG-2540, 3 mg/kg IV Q7Dx4, Day 0-28
[9] = CTG-0192, 3 mg/kg IV Q7Dx5, Day 0-34
[10] = CTG-2011, 3 mg/kg IV Q7Dx4, Day 0-28
[11] = CTG-0160, 3 mg/kg IV Q7Dx4, Day 0-28

## CC[C@H](C)[C@@H]([C@@H](CC(=O)N1CCC[C@H]1[C@H](OC)[C@@H](C)C(=O)N[C@H](C)[C@@H](O)c1ccccc1)OC)N(C)C(=O)[C@@H](NC(=O)[C@H](C(C)C)N(C)C(=O)OCc1ccc(NC(=O)[C@H](CCCNC(N)=O)NC(=O)[C@@H](NC(=O)CCCC(=O)ON2C(=O)CCC2=O)C(C)C)cc1)C(C)C [BT5528] (X1-V[Cit][PABC][NMeV]V[Dil][Dolaproine]-X2)
[1]; 3 mg/kg IV Q7Dx4
  mean body weight loss: minor mean body weight losses
[1]; 3 mg/kg IV Q7Dx4, Day 27
  MTV (mean tumor volume): 128±53 mm^3
  TGI: 112%
[1]; [7]
  # CR (complete responders): 0/0/0
  # PR (partial responders): 0/0/0
  # TFS (tumor-free survivors): 0/0/0
[1]; CTG-1212, 3 mg/kg IV Q7Dx4, Day 27
  % TGI: 112%
[1]; CTG-1212, BT5528 3 mg/kg IV Q7Dx4, Day 27, n=2
  Day 27 Tumor Volume Mean TV ± SEM: 128 ± 53 mm^3
[2]; 3 mg/kg IV Q7Dx4
  mean body weight loss: no mean body weight loss
[2]; 3 mg/kg IV Q7Dx4, Day 28
  MTV (mean tumor volume): 692±156 mm^3
  TGI: 75%
[2]; [8]
  # CR (complete responders): 0/0/0
  # PR (partial responders): 0/0/0
  # TFS (tumor-free survivors): 0/0/0
[2]; CTG-2540, 3 mg/kg IV Q7Dx4, Day 28
  % TGI: 75%
[2]; CTG-2540, BT5528 3 mg/kg IV Q7Dx4, Day 28, n=2
  Day 28 Tumor Volume Mean TV ± SEM: 692 ± 156 mm^3
[3]; 3 mg/kg IV Q7Dx5, Day 7
  maximum mean body weight loss: 2.3%
[3]; 3 mg/kg IV Q7Dx5, Day 34
  MTV (mean tumor volume): 740±386 mm^3
  TGI: 36%
[3]; [9]
  # CR (complete responders): 0/0/0
  # PR (partial responders): 0/0/0
  # TFS (tumor-free survivors): 0/0/0
[3]; CTG-0192, 3 mg/kg IV Q7Dx5, Day 34
  % TGI: 36%
[3]; CTG-0192, BT5528 3 mg/kg IV Q7Dx5, Day 34, n=2
  Day 34 Tumor Volume Mean TV ± SEM: 740 ± 386 mm^3
[4]; 3 mg/kg IV Q7Dx4, Day 18
  MTV (mean tumor volume): 826±48 mm^3
  TGI: 57%
[4]; [10]
  # CR (complete responders): 0 /0/0
  # PR (partial responders): 0 /0/0
  # TFS (tumor-free survivors): 0 /0/0
[4]; CTG-2011, 3 mg/kg IV Q7Dx4, Day 18
  % TGI: 57%
[4]; CTG-2011, BT5528 3 mg/kg IV Q7Dx4, Day 18, n=2
  Day 18 Tumor Volume Mean TV ± SEM: 826 ± 48 mm^3
[5]; 3 mg/kg IV Q7Dx4, Day 21
  MTV (mean tumor volume): 400±187 mm^3
  TGI: 87%
[5]; [11]
  # CR (complete responders): 0/0/0
  # PR (partial responders): 0/0/0
  # TFS (tumor-free survivors): 0/0/0
[5]; CTG-0160, 3 mg/kg IV Q7Dx4, Day 21
  % TGI: 87%
[5]; CTG-0160, BT5528 3 mg/kg IV Q7Dx4, Day 21, n=2
  Day 21 Tumor Volume Mean TV ± SEM: 400 ± 187 mm^3
[6]
  anti-tumor activity (tumor size by caliper): significant anti-tumor activity from reduced tumor growth rate to decreasing tumor volumes
